According to PMC3013507 (Anticancer research, 2010):
pIC50: −log10 of the molar value. Like-named read-outs stand apart in the source and are kept apart here. One block for each molecule: values may come before it.

Assays:
[1] = test system: HT-29 cells; assay: Cytotoxicity; settings: HT-29 colon cancer cells; for HT-29 ED50: 3–4 days, SRB
[2] = target: NF-κB p65 (Homo sapiens, UniProt Q04206); assay: ELISA NF-κB p65 inhibition assay; format: cell-based; settings: for ELISA NF-κB IC50: NF-κB p65, nuclear extract of HeLa cells treated with compound and TNF-α; for NF-κB inhibitory activity (in words): NF-κB p65 ELISA
Chain of NF-κB p65 (Q04206 whole entry): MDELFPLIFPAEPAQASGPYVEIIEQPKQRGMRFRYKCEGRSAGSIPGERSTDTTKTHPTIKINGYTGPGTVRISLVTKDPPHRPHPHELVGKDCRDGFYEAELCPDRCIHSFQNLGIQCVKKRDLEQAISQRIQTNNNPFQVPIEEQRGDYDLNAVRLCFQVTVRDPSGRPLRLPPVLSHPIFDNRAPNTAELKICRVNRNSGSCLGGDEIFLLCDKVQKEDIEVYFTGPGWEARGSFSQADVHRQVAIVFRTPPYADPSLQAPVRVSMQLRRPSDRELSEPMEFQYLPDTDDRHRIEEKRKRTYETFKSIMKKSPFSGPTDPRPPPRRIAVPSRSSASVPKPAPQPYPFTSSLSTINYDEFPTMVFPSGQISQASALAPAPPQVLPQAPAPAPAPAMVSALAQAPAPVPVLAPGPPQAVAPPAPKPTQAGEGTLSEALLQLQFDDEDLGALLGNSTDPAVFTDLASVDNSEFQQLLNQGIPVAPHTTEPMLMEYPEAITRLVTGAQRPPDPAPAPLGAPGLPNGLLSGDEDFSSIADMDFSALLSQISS

[3] = test system: HL-60 cells; assay: Cytotoxicity; settings: HL-60 leukemia cells; for HL-60 ED50: 3–4 days, SRB
[4] = test system: HeLa cells; assay: Cytotoxicity; settings: for HeLa ED50: HeLa cervical cancer cells, 3–4 days, SRB
[5] = test system: HT-29 cells; assay: Reactive oxygen species; format: cell-based; settings: for Potentiating effect on intracellular ROS levels in the presence of H2O2: H2O2 50 μM
[6] = test system: HL-60 cells
[7] = test system: HeLa cells
[8] = test system: HT-29 cells
[9] = test system: mitochondria transmembrane potential; assay: Mitochondria transmembrane potential; format: cell-based; settings: 2 h treatment, JC-1
[10] = test system: P-388 cell line; settings: cited from earlier work
[11] = test system: NF-κB; assay: NF-κB evaluation in whole cells; format: cell-based; settings: HeLa cells, IL-1α stimulation; compound 8 at 5 μg/ml
[12] = test system: NFAT-1; assay: NFAT-1 assay; format: cell-based; settings: 30 min incubation

- ELISA NF-κB IC50 [2]: 5.3 µg/mL
Molecule: C/C=C(\C)C(=O)O[C@@H]1C[C@@]2(C)[C@H]([C@@H]3C[C@@H]([C@@H]4OC4(C)C)O[C@@H]3OC(C)=O)CC[C@]2(C)[C@@H]2CC=C3C(C)(C)C(=O)C[C@H](O)[C@]3(C)[C@H]21 [Compound 2, bruceajavaninone A]
- HT-29 ED50 [1]: >20 µg/mL
- HL-60 ED50 [3]: >20 µg/mL
- HeLa ED50 [4]: >20 µg/mL

- ELISA NF-κB IC50 [2]: 1.0 µg/mL
Molecule: C/C=C(\C)C(=O)O[C@@H]1C[C@]2(C)C(=CC[C@H]2[C@@H]2C[C@@H]([C@@H]3OC3(C)C)O[C@@H]2OC(C)=O)[C@@]2(C)[C@H]1[C@@]1(C)C=CC(=O)C(C)(C)[C@@H]1C[C@H]2OC(C)=O [Compound 4, bruceajavanone B]
- HT-29 ED50 [1]: >20 µg/mL
- Potentiating effect on intracellular ROS levels in the presence of H2O2 [5]: exerted a potentiating effect
- HL-60 ED50 [3]: 1.1 µg/mL
- HeLa ED50 [4]: >20 µg/mL
- Cytotoxicity against HL-60 (in words) [6]: selective cytotoxicity against the HL-60 cell line

Molecule: COC(=O)[C@@]12OC[C@]34[C@H]([C@@H](O)[C@@H]1O)[C@@]1(C)CC(=O)C(O)=C(C)[C@@H]1C[C@H]3OC(=O)[C@H](OC(=O)/C=C(\C)C(C)C)[C@@H]24 [Compound 5, bruceantin]
- Cytotoxicity against HT-29 (in words) [1]: highly cytotoxic
- HT-29 ED50 [1]: 0.012 µg/mL
- pIC50 [2]: 4.45
- NF-κB inhibitory activity (in words) [2]: moderate NF-κB inhibitory activity
- Cytotoxicity against HL-60 (in words) [3]: highly cytotoxic
- HL-60 ED50 [3]: 0.0082 µg/mL
- Cytotoxicity against HeLa (in words) ([4]; HeLa cells): highly cytotoxic
- HeLa ED50 [4]: 0.016 µg/mL

- pIC50 [2]: 5.38
- NF-κB inhibitory activity (in words) [2]: moderate NF-κB inhibitory activity
Molecule: COC(=O)[C@@]12OC[C@]34[C@H]([C@@H](O)[C@@H]1O)[C@@]1(C)CC(=O)C(O)=C(C)[C@@H]1C[C@H]3OC(=O)[C@H](OC(=O)CC(C)C)[C@@H]24 [Compound 6, bruceine A]
- HT-29 ED50 [1]: 1.6 µg/mL
- Cytotoxicity against HeLa (in words) [7]: highly cytotoxic
- Cytotoxicity against HT-29 (in words) [8]: highly cytotoxic
- HL-60 ED50 [3]: 0.069 µg/mL
- HeLa ED50 [4]: 0.6 µg/mL
- Cytotoxicity against HL-60 (in words) [6]: highly cytotoxic

- ELISA NF-κB IC50 [2]: 11.5 µg/mL
Molecule: COc1cc([C@H]2Oc3cc(-c4cc(=O)c5c(O)cc(O)cc5o4)ccc3O[C@@H]2CO)ccc1O [Compound 7, (−)-hydnocarpin]
- HT-29 ED50 [1]: 9.7 µg/mL
- Cytotoxicity against HT-29 (in words) [8]: moderate cytotoxicity
- HL-60 ED50 [3]: 2.6 µg/mL
- HeLa ED50 [4]: >20 µg/mL
- Cytotoxicity against HL-60 (in words) [6]: moderate cytotoxicity

Molecule: COc1cc(-c2cc(=O)c3c(O)cc(O)cc3o2)ccc1O [Compound 8, chrysoeriol]
- HT-29 ED50 [1]: >20 µg/mL
- Effect on mitochondrial transmembrane potential [9]: able to compromise the integrity of the mitochondrial membrane to a larger extent than the other test compounds
- Potentiating effect on intracellular ROS levels in the presence of H2O2 [5]: exerted a potentiating effect
- Elevation of intracellular ROS in the absence of H2O2 ([5]; compound alone): most significant elevation of intracellular ROS
- Activity using the P-388 cell line [10]: moderately active
- Inhibition of NF-κB translocation into the nucleus [11]: showed inhibition of translocation of NF-κB into the nucleus
- Cytotoxicity against HL-60 (in words) [3]: selective cytotoxicity against the HL-60 cell line
- HL-60 ED50 [3]: 0.6 µg/mL
- NFAT translocation from the cytoplasm to the nucleus [12]: Induced activation of NFAT was confirmed by its translocation to the nucleus
- HeLa ED50 [4]: >20 µg/mL

Molecule: Cc1c2ccncc2c(C)c2c1[nH]c1ccccc12 [Ellipticine, ellipticine, reference compound]
- HT-29 ED50 [1]: 3.5 µg/mL
- HL-60 ED50 [3]: 1.3 µg/mL
- HeLa ED50 [4]: 3.6 µg/mL

Molecule: COc1ccc([C@@]23Oc4cc(OC)cc(OC)c4[C@]2(O)[C@H](O)[C@H](C(=O)N(C)C)[C@H]3c2ccccc2)cc1 [Rocaglamide, reference compound]
- Inhibition of NF-κB translocation into the nucleus [11]: inhibited the translocation

- ELISA NF-κB IC50 [2]: >20 µg/mL
Molecule: bruceajavanone A 7-acetate [Compound 1]
- HT-29 ED50 [1]: >20 µg/mL
- HL-60 ED50 [3]: >20 µg/mL
- HeLa ED50 [4]: >20 µg/mL

- ELISA NF-κB IC50 [2]: >20 µg/mL
Molecule: bruceajavanone C [Compound 3]
- HT-29 ED50 [1]: >20 µg/mL
- HL-60 ED50 [3]: >20 µg/mL
- HeLa ED50 [4]: >20 µg/mL
